Patent publication US7179823B1, “5-membered n-heterocyclic compounds with hypoglycemic and hypolipidemic activity” (Takeda Pharmaceutical Company Limited, priority 1999, dated 2007)
Where two headings read alike, the source gives them in different places.

Key:
KKA^y mice [1] = assay: Hypoglycemic and hypolipidemic actions in mice; assay type: in vivo; settings: Mus musculus, po, 96 h, four days; for inhibition in vivo at 0.0003 %: 0.0003% in powdery diet; for inhibition in vivo at 0.01 %: 0.01% in powdery diet; for inhibition in vivo at 0.005 %: 0.005% in powdery diet; for inhibition in vivo at 0.001 %: 0.001% in powdery diet
Text: Hypoglycemic and Hypolipidemic Actions in Mice
Test compounds were mixed in a powdery diet (CE-2, Japan Clea) at the concentration of 0.01% (compounds of Examples 12, 30, 89, 186), 0.005% (compounds of Examples 7, 80, 82, 181, 182, 184, 256, 262, 283), 0.001% (compounds of Examples 9, 104, 110, 155, 156, 160, 167, 169, 172, 174, 176, 189), or 0.0003% (compounds of Examples 38, 40, 44), and freely given to KKA^y mice (9 to 12 weeks old, 5 mice in a group), a model of obese and type 2 diabetes mellitus, for four days. During this period, water was given freely. Blood was sampled from orbital venous plexus, and glucose and triglyceride levels in plasma separated from blood were determined enzymatically using L type Wako Glu2 (Wako Pure Chemical Industries, Ltd.) or L type Wako TG•H (Wako Pure Chemical Industries, Ltd.), respectively.
In the Table, the value of each treatment group is represented as percent reduction compared with the non-treatment group.

KKA^y mice [2] = assay: Total cholesterol lowering action and plasma anti-arteriosclerosis index-enhancing action in mice; assay type: in vivo; settings: Mus musculus, po, 96 h, four days, non-treatment group taken as 100%; for change in vivo at 0.005 % / inhibition in vivo at 0.005 %: 0.005% in powdery diet; for change in vivo at 0.01 % / inhibition in vivo at 0.01 %: 0.01% in powdery diet
Text: Total Cholesterol Lowering Action and Plasma Anti-Arteriosclerosis Index-Enhancing Action in Mice
Test compounds were mixed in a powdery diet (CE-2, Japan Clea) at the concentration of 0.01% (compounds of Examples 12, 30, 89), 0.005% (compounds of Examples 38, 40, 44, 181, 184, 262, 283), or 0.001% (compounds of Examples 9, 156, 167, 172, 174, 176, 189), and freely given to KKA^y mice (9 to 12 weeks old, 5 mice per group), a model of obese and type 2 diabetes mellitus, for four days. During this period, water was given freely. Blood was sampled from orbital venous plexus and plasma was separated. Total cholesterol levels were determined by using L type Wako Cholesterol (Wako Pure Chemical Industries, Ltd.). Precipitation reagent for apoB containing lipoprotein was added to a part of the plasma to precipitate non-HDL lipoprotein, and cholesterol (HDL cholesterol) in the resulting supernatant was determined. The plasma anti-arteriosclerosis index [(HDL cholesterol/total cholesterol)×100] was calculated by using these cholesterol levels.
In the Table, “Total cholesterol lowering action (%)” represents the percent reduction (%) of total cholesterol level in the treatment group, when the total cholesterol level in the non-treatment group is taken as 100%. “Plasma anti-arteriosclerosis index-enhancing action (%)” represents the percent increase (%) of plasma anti-arteriosclerosis index in the treatment group, when the plasma anti-arteriosclerosis index in the non-treatment group is taken as 100%.

[3] = percent reduction of plasma glucose compared with the non-treatment group, read-out: Hypoglycemic action (%)
[4] = percent reduction of plasma triglyceride compared with the non-treatment group, read-out: Hypolipidemic action (%)
[5] = percent increase of [(HDL cholesterol/total cholesterol)×100], read-out: Plasma anti-arteriosclerosis index-enchancing action (%)
[6] = percent reduction of plasma total cholesterol

| SMILES | inhibition in vivo at 0.0003 % (KKA^y mice [1]; [3]) | inhibition in vivo at 0.0003 % (KKA^y mice [1]; [4]) | change in vivo at 0.005 % (KKA^y mice [2]; [5]) | inhibition in vivo at 0.005 % (KKA^y mice [2]; [6]) | inhibition in vivo at 0.01 % (KKA^y mice [1]; [3]) | inhibition in vivo at 0.01 % (KKA^y mice [1]; [4]) | change in vivo at 0.01 % (KKA^y mice [2]; [5]) | inhibition in vivo at 0.01 % (KKA^y mice [2]; [6]) | also measured |
| --- | --- | --- | --- | --- | --- | --- | --- | --- | --- |
| O=C(O)CCc1cn(Cc2ccc(OCc3csc(-c4cccs4)n3)cc2)cc1-c1ccccc1 [Example 40, 3-[4-phenyl-1-[4-[2-(2-thienyl)-4-thiazolylmethoxy]benzyl]-3-pyrrolyl]propionic acid] | 41% | 66% | 22% | 19% | – | – | – | – | – |
| O=C(O)CCc1cn(Cc2ccc(OCc3csc(-c4ccco4)n3)cc2)cc1-c1ccccc1 [Example 38, 3-[1-[4-[2-(2-furyl)-4-thiazolylmethoxy]benzyl]-4-phenyl-3-pyrrolyl]propionic acid] | 44% | 69% | 21% | 24% | – | – | – | – | – |
| O=C(O)CCc1cn(Cc2ccc(OCc3coc(-c4ccccc4)n3)cc2)cc1-c1ccccc1 [Example 44, 3-[4-phenyl-1-[4-(2-phenyl-4-oxazolylmethoxy]benzyl]-3-pyrrolyl]propionic acid] | 47% | 74% | 21% | 23% | – | – | – | – | – |
| Cc1oc(-c2ccccc2)nc1COc1ccc(Cn2cc(CCC(=O)O)c(-c3ccccc3)n2)cc1 [Example 89, 3-[1-[4-(5-methyl-2-phenyl-4-oxazolylmethoxy)benzyl]-3-phenyl-1H-pyrazol-4-yl]propionic acid] | – | – | – | – | 48% | 70% | 15% | 8% | – |
| O=C(O)CCc1cn(Cc2ccc(OCc3csc(-c4ccccc4)n3)cc2)cc1-c1ccccc1 [Example 30, 3-[4-phenyl-1-[4-(2-phenyl-4-thiazolylmethoxy)benzyl]-3-pyrrolyl]propionic acid] | – | – | – | – | 54% | 77% | 16% | 27% | – |
| CCOc1nn(Cc2ccc(OCc3nc(-c4ccccc4)oc3C)nc2)cc1CC(=O)O [Example 262, 3-ethoxy-1-[6-(5-methyl-2-phenyl-4-oxazolylmethoxy)-3-pyridylmethyl]-1H-pyrazol-4-ylacetic acid] | – | – | 9% | 22% | – | – | – | – | inhibition in vivo at 0.005 % (KKA^y mice [1]; [3]): 45%; inhibition in vivo at 0.005 % (KKA^y mice [1]; [4]): 61% |
| Cc1oc(-c2ccccc2)nc1COc1ccc(Cn2cc(CCC(=O)O)c(-c3ccccc3)n2)cn1 [Example 283, 3-[1-[2-(5-methyl-2-phenyl-4-oxazolylmethoxy)-5-pyridylmethyl]-3-phenyl-1H-pyrazol-4-yl]propionic acid] | – | – | 19% | 24% | – | – | – | – | inhibition in vivo at 0.005 % (KKA^y mice [1]; [3]): 52%; inhibition in vivo at 0.005 % (KKA^y mice [1]; [4]): 78% |
| O=C(O)CCc1cn(Cc2ccc(OCc3cccnc3)cc2)cc1-c1ccccc1 [Example 12, 3-[4-phenyl-1-[4-(3-pyridylmethoxy)benzyl]-3-pyrrolyl]propionic acid] | – | – | – | – | 46% | 63% | 24% | 15% | – |
| Cc1oc(-c2cccs2)nc1COc1ccc(Cn2cc(CCC(=O)O)c(-c3ccccc3)c2)cc1 [Example 9, 3-[1-[4-[5-methyl-2-(2-thienyl)-4-oxazolylmethoxy]benzyl]-4-phenyl-3-pyrrolyl]propionic acid] | – | – | – | – | – | – | – | – | inhibition in vivo at 0.001 % (KKA^y mice [1]; [3]): 48%; inhibition in vivo at 0.001 % (KKA^y mice [1]; [4]): 70%; change in vivo at 0.001 % (KKA^y mice [2]; 0.001% in powdery diet, percent increase of [(HDL cholesterol/total cholesterol)×100], read-out: Plasma anti-arteriosclerosis index-enchancing action (%)): 12%; inhibition in vivo at 0.001 % (KKA^y mice [2]; 0.001% in powdery diet, percent reduction of plasma total cholesterol): 16% |
